The source made the active and inactive calls. The calls are words filed in the database; no cut-off is given here.
Key:
HUVEC [1] = assay: Antiangiogenic activity in human HUVEC cells assessed as angiogenesis rate at 10 uM after 5 hrs by endothelial tube formation assay relative to control; type: functional
HUVEC [2] = assay: Antiangiogenic activity in human HUVEC cells assessed as angiogenesis rate at 1 uM after 5 hrs by endothelial tube formation assay relative to control; type: functional
[3] = Cytotoxicity against mouse SVEC4-10 cells assessed as cell viability after 24 hrs by MTS assay; type: cell-based; details: SVEC4-10, 24 h
Thoracic aorta [4] = assay: Antiangiogenic activity in Fischer 344 rat thoracic aorta assessed as field of view occupancy at 1 microg/ml after 5 days by light microscopic analysis (reference value: 86 %); type: functional
Thoracic aorta [5] = assay: Antiangiogenic activity in Fischer 344 rat thoracic aorta assessed as field of view occupancy at 10 microg/ml after 5 days light microscopic analysis(reference value: 86 %); type: functional

For `Cc1cc(C)n2c1C=C(c1cccc(F)c1)C2=O`, the Activity (HUVEC [1]) was “inactive”.
In the case of `Cc1cccc(C2=Cc3c(C)cc(C)n3C2=O)c1`, the Activity (HUVEC [1]) is reported as “inactive”.
With `COc1ccccc1C1=Cc2c(C)cc(C)n2C1=O` the Activity (HUVEC [1]) was “Active”.
With `Cc1ccc(C2=Cc3c(C)cc(C)n3C2=O)cc1` the Activity (HUVEC [1]) was “inactive”.
With `Cc1cc(C)n2c1C=C(c1ccc(Cl)cc1)C2=O` the Activity (HUVEC [1]) was “inactive”.
For `Cc1cc(C)n2c1C=C(c1ccccc1Cl)C2=O`, the Activity (HUVEC [1]) was “inactive”.
For `Cc1cc(C)n2c1C=C(c1cccc(Br)c1)C2=O`, the Activity (HUVEC [1]) was “inactive”.
With `Cc1cc(C)n2c1C=C(c1ccccc1[N+](=O)[O-])C2=O` the Activity (HUVEC [1]) was 29.7%, the Activity (HUVEC [2]) was 74% and the IC50 [3] was 32 µM. For the same compound, the Activity (Thoracic aorta [4]) was “inactive” and the Activity (Thoracic aorta [5]) was 4%.
With `Cc1cc(C)n2c1C=C(c1cccc([N+](=O)[O-])c1)C2=O` the Activity (HUVEC [1]) was “inactive”.
For `COc1cccc(C2=Cc3c(C)cc(C)n3C2=O)c1`, the Activity (HUVEC [1]) was “inactive”.
With `Cc1cc(C)n2c1C=C(c1ccc([N+](=O)[O-])cc1)C2=O` the Activity (HUVEC [1]) was “inactive”.
In the case of `Cc1cc(C)n2c1C=C(c1ccc(Br)cc1)C2=O`, the Activity (HUVEC [1]) is reported as “inactive”.
For `Cc1cc(C)n2c1C=C(c1cccc(Cl)c1)C2=O`, the Activity (HUVEC [1]) was “inactive”.
In the case of `Cc1cc(C)n2c1C=C(c1ccccc1)C2=O`, the Activity (HUVEC [1]) is reported as 68.4% and the Activity (Thoracic aorta [5]) is reported as “Active”.
With `Cc1ccccc1C1=Cc2c(C)cc(C)n2C1=O` the Activity (HUVEC [1]) was “Active”.
For `CCN(CC)CCNC(=O)c1c(C)[nH]c(/C=C2\C(=O)Nc3ccc(F)cc32)c1C` [SUNITINIB], the Activity (HUVEC [1]) was “Active” and the IC50 [3] was 8 µM.
For `Cc1cc(C)n2c1C=C(c1ccc(F)cc1)C2=O`, the Activity (HUVEC [1]) was “inactive”.
In the case of `Cc1cc(C)n2c1C=C(c1ccccc1Br)C2=O`, the Activity (HUVEC [1]) is reported as “Active”.
With `Cc1cc(C)n2c1C=C(c1ccccc1F)C2=O` the Activity (HUVEC [1]) was “Active”.
With `Cc1cc(C)c(/C=C2\C(=O)Nc3ccccc32)[nH]1` [SEMAXANIB] the Activity (Thoracic aorta [4]) was 61% and the Activity (Thoracic aorta [5]) was 10%.

— ChEMBL document CHEMBL3784987, “Synthesis and preliminary evaluation of 5,7-dimethyl-2-aryl-3H-pyrrolizin-3-ones as angiogenesis inhibitors” (Bioorg Med Chem Lett, 2016)
